The experiment is described as follows: Tested for activity against 5-hydroxytryptamine 1A receptor from bovine hippocampus.
For orientation: Ki means the dissociation constant of the complex between target and ligand, obtained from inhibition or displacement. A high value points to weaker binding. `COc1cccc2c1C[C@H]1CCN[C@H]1C2` [5-Methoxy-2,3,3a,4,9,9a-hexahydro-1H-benzo[f]indole]: affinity was put at a Ki of 1 µM. Molecule `CCCN1[C@H](C)C[C@H]2c3c(O)cccc3CC[C@H]21` [(2R,3aR,9bS)-2-Methyl-3-propyl-2,3,3a,4,5,9b-hexahydro-1H-benzo[e]indol-9-ol] gave a Ki of 0.016 µM. The value for `COc1cccc2c1C[C@H]1CCN(Cc3ccccc3)[C@H]1C2` [1-Benzyl-5-methoxy-2,3,3a,4,9,9a-hexahydro-1H-benzo[f]indole] was 1 µM; that for `COc1cccc2c1CC[C@@H]1[C@H]2CCN1CC1CC1` [(3aR,9bS)-3-Cyclopropylmethyl-6-methoxy-2,3,3a,4,5,9b-hexahydro-1H-benzo[e]indole] was 1 µM; that for `CCCN1CC[C@H]2c3c(cccc3OC)CC[C@@H]21` [(3aS,9bS)-9-Methoxy-3-propyl-2,3,3a,4,5,9b-hexahydro-1H-benzo[e]indole] was 0.0002 µM.

Values taken from BindingDB's records for doi:10.1021/jm00008a008 (Arris Pharmaceutical, 1995).
